Results from patent US20250057872A1, “INNATE IMMUNOMODULATORY EFFECT OF GINSENG BERRY POLYSACCHARIDES IN IMMUNOCOMPROMISED CONDITIONS” (GANGNEUNG-WONJU NATIONAL UNIVERSITY INDUSTRY ACADEMY …, priority 2022, published 2025).

Experiments:
[1] = system: mice immunosuppressed by administering cyclophosphamide (CY); experiment: Spleen size and spleen index in cyclophosphamide (CY)-immunosuppressed mice; assay type: in vivo, BALB/c mice; conditions: CY (80 mg/kg IP) mice, CY group compared to normal group, LEV 40 mg/kg, red ginseng 100 mg/kg, GBPs 50, 100, 250, 500 mg/kg BW orally; for spleen size: FIG. 1; for spleen index: FIG. 2
Protocol: Six-week-old male BALB/c mice (21-23 g) were purchased from the Central Lab, Animal Inc. (Korea) and housed under standard conditions with temperature maintained at 22±2° C. and a 12-h/12-h dark/light cycle.
(§1) In the present invention, 40 mice were randomly divided into 8 groups (n=5 per group) and variously treated according to Table 1.
(§2) Cyclophosphamide (CY) was used to induce immunosuppressive models by intraperitoneal (IP) injection at a dose of 80 mg/kg body weight (BW). […] In addition, ginseng was used with a commercially available product, and mice were sacrificed 24 hours after the last treatment of samples in Table 1.
The spleen was dissected and weighed. The spleen index was calculated according to Formula below:
Spleen index (mg/g)=spleen weight/body weight of mouse [Formula]

[2] = system: immune-related genes (IL-1β, IL-2, IL-4, IL-6, TNF-α, IFN-γ, TLR-4, COX-2); parameters: species or system BALB/c mice; conditions: mouse, in vivo
Protocol: as §1, §2

NK cells = experiment: NK cell-mediated cytotoxicity assay, splenocytes co-cultured with YAC-1 cells; assay type: in vivo, BALB/c mice; conditions: CY-treated group (80 mg/kg IP); effector:target 50:1
Protocol: as §1, §2

splenic lymphocytes = experiment: Splenic lymphocyte proliferation (EZ-Cytox) of splenocytes from treated mice, stimulated with Con A or LPS; assay type: in vivo, BALB/c mice; conditions: CY-treated group (80 mg/kg IP) compared to the normal group
Protocol: as §1, §2

Structure (SMILES)	spleen size [1]	spleen index [1]	mRNA expression levels of immune-related genes IL-2, IL-4, IL-6, TNF-α, IFN-γ, TLR-4 and COX-2 [2]	activity of NK cells (NK cells) [%]	Con A-stimulated cell proliferation, reduction (splenic lymphocytes; Con A 5 μg/ml) [%]	LPS-stimulated cell proliferation, reduction (splenic lymphocytes; LPS 10 μg/ml) [%]
O=P1(N(CCCl)CCCl)NCCCO1 (centres unmarked) [CY, Cyclophosphamide]	decreases in both spleen size and spleen indices	decreases in both spleen size and spleen indices	lower than those of the normal group	42.9	48.1	57.1
c1ccc([C@H]2CN3CCSC3=N2)cc1 [LEV, Levamisole]	increased spleen size and indices	increased spleen size and indices				
